Source: patent US20260027068A1, “METHODS OF ADM[…]-KETAMINE” (Perception Neuroscience, Inc., priority 2022, published 2026)

Test system: subjects with TRD
Assay: Adverse events (TEAEs, SAEs) in the TRD study
Format: in vivo, human
Settings: 30 mg (n = 33)
Text: The definitions of an AE and SAE can be found in Section F. AEs were reported by the subject (or, when appropriate, by a caregiver, surrogate, or the subject's legally authorized representative). The Investigator and any designees were responsible for detecting, documenting, and recording events that meet the definition of an AE or SAE and remained responsible for following up AEs that were serious, considered related to the study treatment or study procedures, or that caused the subject to discontinue from the study.
All AEs were collected from the signing of the ICF until the second follow-up visit (Day 15) at the time points specified in the Schedule of Activities (Section C). Medical occurrences that began before the start of study treatment but after obtaining informed consent were recorded on the Medical History/Current Medical Conditions section of the CRF, not the AE section. All SAEs were recorded and reported to the Sponsor or designee within 24 hours as indicated in Section F. The Investigator submitted any updated SAE data to the Sponsor or designee within 24 hours of it being available. Investigators were not obligated to actively seek AE or SAE information after the conclusion of study participation. However, if the Investigator learns of any SAE, including a death, at any time after a subject has been discharged from the study, and he/she considers the event to be reasonably related to the study treatment or study participation, the Investigator must promptly notify the Sponsor or designee. The method of recording, evaluating, and assessing the causality of AEs and SAEs and the procedures for completing and transmitting SAE reports are provided in Section F.
An AE is any untoward medical occurrence in a patient or subject, temporally associated with the use of study treatment, whether or not considered related to the study treatment. An AE can therefore be any unfavorable and unintended sign (including an abnormal laboratory finding), symptom, or disease (new or exacerbated) temporally associated with the use of study treatment.
If an event is not an AE per the definition above, then it cannot be an SAE even if serious conditions are met (e.g., hospitalization for signs/symptoms of the disease under study). A Serious Adverse Event (SAE) is defined as any untoward medical occurrence that, at any dose: a) results in death; b) is life-threatening; c) requires inpatient hospitalization or prolongation of existing hospitalization; d) results in persistent disability/incapacity; or e) is a congenital anomaly/birth defect. The term “life-threatening” in the definition of “serious” refers to an event in which the subject was at risk of death at the time of the event. […] In general, hospitalization signifies that the subject has been detained (usually involving at least an overnight stay) at the hospital or emergency ward for observation and/or treatment that would not have been appropriate in the physician's office or outpatient setting. Complications that occur during hospitalization are AEs. If a complication prolongs hospitalization or fulfills any other serious criteria, the event is serious. When in doubt as to whether “hospitalization” occurred or was necessary, the AE should be considered serious. […] The term disability means a substantial disruption of a person's ability to conduct normal life functions.
(MedDRA; Version 23.0 or higher). Treatment-emergent adverse events (TEAEs) are AEs with onset or worsening after the start of study treatment. The AE summaries will be primarily based on TEAEs. The number and percentage of subjects with TEAEs will be summarized by treatment group, system organ class, and preferred term for all TEAEs, treatment-related TEAEs, SAEs, serious TEAEs, severe TEAEs, TEAEs of special interest, and all TEAEs leading to study drug discontinuation. All TEAEs will be further summarized by maximum severity and causality. The TEAEs of special interest will be identified in the SAP. […]

CN[C@@]1(c2ccccc2Cl)CCCCC1=O [PCN 101]
Number of subjects with any treatment-emergent adverse events: 11 | Number of treatment-emergent adverse events: 22 | Subjects with any treatment-emergent adverse events: (%) of subjects: (33) | TEAE PT Alopecia: (%) of subjects: (0) | TEAE PT Alopecia: number of subjects: 0 | TEAE PT Aversion: (%) of subjects: (0) | TEAE PT Aversion: number of subjects: 0 | TEAE PT Balance disorder: (%) of subjects: (0) | TEAE PT Balance disorder: number of subjects: 0 | TEAE PT Blood pressure increased: (%) of subjects: (0) | TEAE PT Blood pressure increased: number of subjects: 0 | TEAE PT Bruxism: (%) of subjects: (0) | TEAE PT Bruxism: number of subjects: 0 | TEAE PT Confusional state: (%) of subjects: (0) | TEAE PT Confusional state: number of subjects: 0 | TEAE PT Defect conduction intraventricular: (%) of subjects: (0) | TEAE PT Defect conduction intraventricular: number of subjects: 0 | TEAE PT Derealisation: (%) of subjects: (12) | TEAE PT Derealisation: number of subjects: 4 | TEAE PT Diarrhoea: (%) of subjects: (0) | TEAE PT Diarrhoea: number of subjects: 0 | TEAE PT Dissociation: (%) of subjects: (0) | TEAE PT Dissociation: number of subjects: 0 | TEAE PT Dizziness: (%) of subjects: (6) | TEAE PT Dizziness: number of subjects: 2 | TEAE PT Dry mouth: (%) of subjects: (0) | TEAE PT Dry mouth: number of subjects: 0 | TEAE PT Dysarthria: (%) of subjects: (0) | TEAE PT Dysarthria: number of subjects: 0 | TEAE PT Dyspnoea exertional: (%) of subjects: (3) | TEAE PT Dyspnoea exertional: number of subjects: 1 | TEAE PT Energy increased: (%) of subjects: (0) | TEAE PT Energy increased: number of subjects: 0 | TEAE PT Euphoric mood: (%) of subjects: (0) | TEAE PT Euphoric mood: number of subjects: 0 | TEAE PT Fatigue: (%) of subjects: (0) | TEAE PT Fatigue: number of subjects: 0 | TEAE PT Feeling abnormal: (%) of subjects: (0) | TEAE PT Feeling abnormal: number of subjects: 0 | TEAE PT Feeling drunk: (%) of subjects: (0) | TEAE PT Feeling drunk: number of subjects: 0 | TEAE PT Haematuria: (%) of subjects: (3) | TEAE PT Haematuria: number of subjects: 1 | TEAE PT Headache: (%) of subjects: (9) | TEAE PT Headache: number of subjects: 3 | TEAE PT Hyperacusis: (%) of subjects: (0) | TEAE PT Hyperacusis: number of subjects: 0 | TEAE PT Hyperhidrosis: (%) of subjects: (3) | TEAE PT Hyperhidrosis: number of subjects: 1 | TEAE PT Hyperphagia: (%) of subjects: (0) | TEAE PT Hyperphagia: number of subjects: 0 | TEAE PT Hypoaesthesia oral: (%) of subjects: (0) | TEAE PT Hypoaesthesia oral: number of subjects: 0 | TEAE PT Hypoaesthesia: (%) of subjects: (0) | TEAE PT Hypoaesthesia: number of subjects: 0 | TEAE PT Increased appetite: (%) of subjects: (0) | TEAE PT Increased appetite: number of subjects: 0 | TEAE PT Influenza like illness: (%) of subjects: (0) | TEAE PT Influenza like illness: number of subjects: 0 | TEAE PT Infusion site hypoaesthesia: (%) of subjects: (0) | TEAE PT Infusion site hypoaesthesia: number of subjects: 0 | TEAE PT Left ventricular hypertrophy: (%) of subjects: (0) | TEAE PT Left ventricular hypertrophy: number of subjects: 0 | TEAE PT Lethargy: (%) of subjects: (0) | TEAE PT Lethargy: number of subjects: 0 | TEAE PT Limb discomfort: (%) of subjects: (0) | TEAE PT Limb discomfort: number of subjects: 0 | TEAE PT Logorrhoea: (%) of subjects: (0) | TEAE PT Logorrhoea: number of subjects: 0 | TEAE PT Memory impairment: (%) of subjects: (0) | TEAE PT Memory impairment: number of subjects: 0 | TEAE PT Muscle strain: (%) of subjects: (3) | TEAE PT Muscle strain: number of subjects: 1 | TEAE PT Muscular weakness: (%) of subjects: (0) | TEAE PT Muscular weakness: number of subjects: 0 | TEAE PT Nausea: (%) of subjects: (0) | TEAE PT Nausea: number of subjects: 0 | TEAE PT Paraesthesia: (%) of subjects: (0) | TEAE PT Paraesthesia: number of subjects: 0 | TEAE PT Rhinorrhoea: (%) of subjects: (0) | TEAE PT Rhinorrhoea: number of subjects: 0 | TEAE PT Sedation: (%) of subjects: (0) | TEAE PT Sedation: number of subjects: 0 | TEAE PT Sensory disturbance: (%) of subjects: (3) | TEAE PT Sensory disturbance: number of subjects: 1 | TEAE PT Sinusitis: (%) of subjects: (0) | TEAE PT Sinusitis: number of subjects: 0 | TEAE PT Skin abrasion: (%) of subjects: (0) | TEAE PT Skin abrasion: number of subjects: 0 | TEAE PT Slow speech: (%) of subjects: (0) | TEAE PT Slow speech: number of subjects: 0 | TEAE PT Smoke sensitivity: (%) of subjects: (0) | TEAE PT Smoke sensitivity: number of subjects: 0 | TEAE PT Somnolence: (%) of subjects: (12) | TEAE PT Somnolence: number of subjects: 4 | TEAE PT Tachycardia: (%) of subjects: (0) | TEAE PT Tachycardia: number of subjects: 0 | TEAE PT Throat tightness: (%) of subjects: (0) | TEAE PT Throat tightness: number of subjects: 0 | TEAE PT Time perception altered: (%) of subjects: (0) | TEAE PT Time perception altered: number of subjects: 0 | TEAE PT Urinary tract infection: (%) of subjects: (3) | TEAE PT Urinary tract infection: number of subjects: 1 | TEAE PT Venous injury: (%) of subjects: (0) | TEAE PT Venous injury: number of subjects: 0 | TEAE PT Vertigo: (%) of subjects: (3) | TEAE PT Vertigo: number of subjects: 1 | TEAE PT Vessel puncture site erythema: (%) of subjects: (3) | TEAE PT Vessel puncture site erythema: number of subjects: 1 | TEAE PT Vision blurred: (%) of subjects: (0) | TEAE PT Vision blurred: number of subjects: 0 | TEAE PT Visual impairment: (%) of subjects: (0) | TEAE PT Visual impairment: number of subjects: 0 | TEAE SOC Cardiac disorders: (%) of subjects: (0) | TEAE SOC Cardiac disorders: number of subjects: 0 | TEAE SOC Ear and labyrinth disorders: (%) of subjects: (3) | TEAE SOC Ear and labyrinth disorders: number of subjects: 1 | TEAE SOC Eye disorders: (%) of subjects: (0) | TEAE SOC Eye disorders: number of subjects: 0 | TEAE SOC Gastrointestinal disorders: (%) of subjects: (0) | TEAE SOC Gastrointestinal disorders: number of subjects: 0 | TEAE SOC General disorders and administration site conditions: (%) of subjects: (3) | TEAE SOC General disorders and administration site conditions: number of subjects: 1 | TEAE SOC Immune system disorders: (%) of subjects: (0) | TEAE SOC Immune system disorders: number of subjects: 0 | TEAE SOC Infections and infestations: (%) of subjects: (3) | TEAE SOC Infections and infestations: number of subjects: 1 | TEAE SOC Injury, poisoning and procedural complications: (%) of subjects: (3) | TEAE SOC Injury, poisoning and procedural complications: number of subjects: 1 | TEAE SOC Investigations: (%) of subjects: (0) | TEAE SOC Investigations: number of subjects: 0 | TEAE SOC Metabolism and nutrition disorders: (%) of subjects: (0) | TEAE SOC Metabolism and nutrition disorders: number of subjects: 0 | TEAE SOC Musculoskeletal and connective tissue disorders: (%) of subjects: (0) | TEAE SOC Musculoskeletal and connective tissue disorders: number of subjects: 0 | TEAE SOC Nervous system disorders: (%) of subjects: (27) | TEAE SOC Nervous system disorders: number of subjects: 9 | TEAE SOC Psychiatric disorders: (%) of subjects: (12) | TEAE SOC Psychiatric disorders: number of subjects: 4 | TEAE SOC Renal and urinary disorders: (%) of subjects: (3) | TEAE SOC Renal and urinary disorders: number of subjects: 1 | TEAE SOC Respiratory, thoracic and mediastinal disorders: (%) of subjects: (3) | TEAE SOC Respiratory, thoracic and mediastinal disorders: number of subjects: 1 | TEAE SOC Skin and subcutaneous tissue disorders: (%) of subjects: (3) | TEAE SOC Skin and subcutaneous tissue disorders: number of subjects: 1
